{"source": "ChEMBL document CHEMBL1268824", "about": "“Synthesis and SAR studies of 1,4-benzoxazine MenB inhibitors: novel antibacterial agents against Mycobacterium tuberculosis” (Bioorg Med Chem Lett, 2010)", "key": {"[1]": {"target": "T1, 1,4-dihydroxy-2-naphthoyl-CoA synthase (Mycobacterium tuberculosis) (UniProt P9WNP5)", "T1 sequence (whole entry)": "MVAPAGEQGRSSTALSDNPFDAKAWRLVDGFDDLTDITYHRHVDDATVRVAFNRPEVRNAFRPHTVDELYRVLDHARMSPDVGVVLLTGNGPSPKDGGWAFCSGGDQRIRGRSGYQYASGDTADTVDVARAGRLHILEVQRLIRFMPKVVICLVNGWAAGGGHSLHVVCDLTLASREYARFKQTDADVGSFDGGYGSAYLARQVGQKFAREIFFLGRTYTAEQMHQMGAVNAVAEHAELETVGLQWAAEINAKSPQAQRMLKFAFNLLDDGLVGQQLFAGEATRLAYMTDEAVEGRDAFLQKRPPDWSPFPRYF", "experiment": "Inhibition of Mycobacterium tuberculosis MenB expressed in Escherichia coli BL21 (DE3) up to 100 uM by double-reciprocal plot analysis"}, "Staphylococcus aureus": {"tested_on": "Staphylococcus aureus", "experiment": "Antibacterial activity against Staphylococcus aureus P209 assessed as bacterial growth inhibition", "assay_type": "functional, organism-based"}, "[2]": {"tested_on": "Mycobacterium tuberculosis", "experiment": "Antibacterial activity against Mycobacterium tuberculosis H37Rv after 5 to 7 days by alamar blue assay", "assay_type": "functional"}, "Escherichia coli [3]": {"tested_on": "Escherichia coli", "experiment": "Antibacterial activity against Escherichia coli M17 assessed as bacterial growth inhibition", "assay_type": "functional, organism-based"}, "[4]": {"target": "T2, 1,4-dihydroxy-2-naphthoyl-CoA synthase (Mycobacterium tuberculosis, UniProt P9WNP5)", "T2 sequence (P9WNP5 whole entry)": "T1 sequence (whole entry)", "experiment": "Non-competitive inhibition of Mycobacterium tuberculosis MenB expressed in Escherichia coli BL21 (DE3)"}, "[5]": {"target": "T2, 1,4-dihydroxy-2-naphthoyl-CoA synthase", "experiment": "Inhibition of Mycobacterium tuberculosis MenB expressed in Escherichia coli BL21 (DE3) by double-reciprocal plot analysis"}, "[6]": {"target": "T2, 1,4-dihydroxy-2-naphthoyl-CoA synthase", "experiment": "Non-competitive inhibition of Mycobacterium tuberculosis MenB expressed in Escherichia coli BL21 (DE3) assessed as inhibition of enzyme-substrate complex formation"}, "Escherichia coli [7]": {"tested_on": "Escherichia coli", "experiment": "Inhibition of Escherichia coli MenE expressed in Escherichia coli BL21 (DE3) at 50 uM by double-reciprocal plot analysis"}, "[8]": {"target": "T1, 1,4-dihydroxy-2-naphthoyl-CoA synthase (Mycobacterium tuberculosis)", "experiment": "Inhibition of Mycobacterium tuberculosis MenB expressed in Escherichia coli BL21 (DE3) at 125 ug/ml by double-reciprocal plot analysis"}, "Mycobacterium avium": {"tested_on": "Mycobacterium avium", "experiment": "Antibacterial activity against Mycobacterium avium", "assay_type": "functional"}}, "note": "pIC50, pKi: −log10 of the molar value. The source made the active and inactive calls. No cut-off for these calls is given here.", "data": [{"smiles": "Cc1ccc2c(c1)OC(=O)/C(=C/C(=O)c1ccccc1Cl)N2", "values": [{"measurement": "inhibition", "setting": "[1]", "result": "inactive"}, {"measurement": "growth inhibition (GI)", "setting": "Staphylococcus aureus", "result": "Active"}, {"measurement": "MIC", "setting": "[2]", "result": "> 100", "unit": "µg/mL"}, {"measurement": "growth inhibition (GI)", "setting": "Escherichia coli [3]", "result": "Active"}]}, {"smiles": "O=C1Oc2ccc(F)cc2N/C1=C\\C(=O)c1ccccc1Cl", "values": [{"measurement": "inhibition", "setting": "[1]", "result": "inactive"}, {"measurement": "growth inhibition (GI)", "setting": "Staphylococcus aureus", "result": "Active"}, {"measurement": "MIC", "setting": "[2]", "result": 3.13, "unit": "µg/mL"}, {"measurement": "growth inhibition (GI)", "setting": "Escherichia coli [3]", "result": "Active"}]}, {"smiles": "COC(=O)/C=C1\\Nc2cc(F)ccc2OC1=O", "values": [{"measurement": "pKi", "setting": "[4]", "result": 4.94}, {"measurement": "MIC", "setting": "[2]", "result": 0.63, "unit": "µg/mL"}, {"measurement": "pIC50", "setting": "[5]", "result": 4.57}, {"measurement": "pKi", "setting": "[6]", "result": 5.00}]}, {"smiles": "COC(=O)/C=C1\\Nc2cc(Cl)ccc2OC1=O", "values": [{"measurement": "pKi", "setting": "[4]", "result": 4.65}, {"measurement": "MIC", "setting": "[2]", "result": 5, "unit": "µg/mL"}, {"measurement": "pIC50", "setting": "[5]", "result": 4.33}, {"measurement": "pKi", "setting": "[6]", "result": 4.73}]}, {"smiles": "COC(=O)/C=C1\\Nc2ccc(F)cc2OC1=O", "values": [{"measurement": "MIC", "setting": "[2]", "result": 0.63, "unit": "µg/mL"}, {"measurement": "pIC50", "setting": "[5]", "result": 4.52}]}, {"smiles": "CCS(=O)(=O)c1ccc2c(c1)N/C(=C\\C(=O)C(C)(C)C)C(=O)O2", "values": [{"measurement": "inhibition", "setting": "Escherichia coli [7]", "result": "inactive"}, {"measurement": "inhibition", "setting": "[8]", "result": 60.3, "unit": "%"}]}, {"smiles": "COC(=O)/C=C1\\Nc2ccc(C)cc2OC1=O", "values": [{"measurement": "MIC", "setting": "[2]", "result": 100, "unit": "µg/mL"}, {"measurement": "pIC50", "setting": "[5]", "result": 4.74}]}, {"smiles": "COC(=O)/C=C1\\Nc2ccc(Cl)cc2OC1=O", "values": [{"measurement": "MIC", "setting": "[2]", "result": 0.63, "unit": "µg/mL"}, {"measurement": "pIC50", "setting": "[5]", "result": 4.45}]}, {"smiles": "COC(=O)/C=C1\\Nc2cc(C)ccc2OC1=O", "values": [{"measurement": "MIC", "setting": "[2]", "result": "> 100", "unit": "µg/mL"}, {"measurement": "pIC50", "setting": "[5]", "result": 4.64}]}, {"smiles": "O=C1Oc2cc(Cl)ccc2N/C1=C\\C(=O)c1ccccc1Cl", "values": [{"measurement": "inhibition", "setting": "[1]", "result": "inactive"}, {"measurement": "growth inhibition (GI)", "setting": "Staphylococcus aureus", "result": "Active"}, {"measurement": "MIC", "setting": "[2]", "result": 3.13, "unit": "µg/mL"}, {"measurement": "growth inhibition (GI)", "setting": "Escherichia coli [3]", "result": "Active"}]}, {"smiles": "O=C1Oc2ccc(Cl)cc2N/C1=C\\C(=O)c1ccccc1Cl", "values": [{"measurement": "inhibition", "setting": "[1]", "result": "inactive"}, {"measurement": "growth inhibition (GI)", "setting": "Staphylococcus aureus", "result": "Active"}, {"measurement": "MIC", "setting": "[2]", "result": 12.5, "unit": "µg/mL"}, {"measurement": "growth inhibition (GI)", "setting": "Escherichia coli [3]", "result": "Active"}]}, {"smiles": "O=C1Oc2cc(F)ccc2N/C1=C\\C(=O)c1ccccc1Cl", "values": [{"measurement": "inhibition", "setting": "[1]", "result": "inactive"}, {"measurement": "growth inhibition (GI)", "setting": "Staphylococcus aureus", "result": "Active"}, {"measurement": "MIC", "setting": "[2]", "result": 1.56, "unit": "µg/mL"}, {"measurement": "growth inhibition (GI)", "setting": "Escherichia coli [3]", "result": "Active"}]}, {"smiles": "COC(=O)/C=C1\\Nc2ccccc2SC1=O", "values": [{"measurement": "MIC", "setting": "[2]", "result": "> 100", "unit": "µg/mL"}, {"measurement": "pIC50", "setting": "[5]", "result": "< 3.85"}, {"measurement": "Activity", "setting": "Mycobacterium avium", "result": ">64", "unit": "µg/mL"}]}, {"smiles": "CCS(=O)(=O)c1ccc2c(c1)N/C(=C\\C(=O)OC)C(=O)O2", "values": [{"measurement": "MIC", "setting": "[2]", "result": "> 100", "unit": "µg/mL"}, {"measurement": "pIC50", "setting": "[5]", "result": 4.75}]}, {"smiles": "O=C1Oc2ccccc2N/C1=C\\C(=O)c1ccccc1Cl", "values": [{"measurement": "inhibition", "setting": "[1]", "result": "inactive"}, {"measurement": "growth inhibition (GI)", "setting": "Staphylococcus aureus", "result": "Active"}, {"measurement": "MIC", "setting": "[2]", "result": 3.13, "unit": "µg/mL"}, {"measurement": "growth inhibition (GI)", "setting": "Escherichia coli [3]", "result": "Active"}]}, {"smiles": "Cc1ccc2c(c1)N/C(=C\\C(=O)c1ccccc1Cl)C(=O)O2", "values": [{"measurement": "inhibition", "setting": "[1]", "result": "inactive"}, {"measurement": "growth inhibition (GI)", "setting": "Staphylococcus aureus", "result": "Active"}, {"measurement": "MIC", "setting": "[2]", "result": 100, "unit": "µg/mL"}, {"measurement": "growth inhibition (GI)", "setting": "Escherichia coli [3]", "result": "Active"}]}, {"smiles": "COC(=O)/C=C1\\Nc2cc([N+](=O)[O-])ccc2OC1=O", "values": [{"measurement": "MIC", "setting": "[2]", "result": 50, "unit": "µg/mL"}, {"measurement": "pIC50", "setting": "[5]", "result": 4.55}]}, {"smiles": "CC(C)CC(=O)/C=C1\\Nc2cc(Cl)ccc2OC1=O", "values": [{"measurement": "inhibition", "setting": "Escherichia coli [7]", "result": "inactive"}, {"measurement": "inhibition", "setting": "[8]", "result": 98, "unit": "%"}]}, {"smiles": "COC(=O)/C=C1\\Nc2ccccc2OC1=O", "values": [{"measurement": "pKi", "setting": "[4]", "result": 5.04}, {"measurement": "MIC", "setting": "[2]", "result": 0.64, "unit": "µg/mL"}, {"measurement": "pIC50", "setting": "[5]", "result": 5.00}, {"measurement": "pKi", "setting": "[6]", "result": 4.17}]}, {"smiles": "COC(=O)/C=C1\\Nc2c(C)cccc2OC1=O", "values": [{"measurement": "MIC", "setting": "[2]", "result": 25, "unit": "µg/mL"}, {"measurement": "pIC50", "setting": "[5]", "result": 4.62}]}, {"smiles": "COC(=O)/C=C1\\Nc2ccc([N+](=O)[O-])cc2OC1=O", "values": [{"measurement": "MIC", "setting": "[2]", "result": "> 100", "unit": "µg/mL"}, {"measurement": "pIC50", "setting": "[5]", "result": 4.69}]}, {"smiles": "CC(C)(C)/C(O)=C/c1nc2ccccc2oc1=O", "values": [{"measurement": "inhibition", "setting": "Escherichia coli [7]", "result": "inactive"}, {"measurement": "inhibition", "setting": "[8]", "result": 68.4, "unit": "%"}]}, {"smiles": "Cc1ccc2c(c1)N/C(=C\\C(=O)CC(C)C)C(=O)O2", "values": [{"measurement": "inhibition", "setting": "Escherichia coli [7]", "result": "inactive"}, {"measurement": "inhibition", "setting": "[8]", "result": 77.3, "unit": "%"}]}, {"smiles": "COC(=O)/C=C1\\Nc2ccccc2NC1=O", "values": [{"measurement": "MIC", "setting": "[2]", "result": "> 100", "unit": "µg/mL"}, {"measurement": "pIC50", "setting": "[5]", "result": "< 3.91"}, {"measurement": "Activity", "setting": "Mycobacterium avium", "result": ">64", "unit": "µg/mL"}]}]}
